Data published in paper PMC5300872, “Convergent evolution of the arginine deiminase pathway: the ArcD and ArcE arginine/ornithine exchangers” (MicrobiologyOpen, 2016).

Target: T1, ArcD1 (Lactococcus cremoris, UniProt A2RNI5)
T1 construct: plasmid pNZarcD1, nisin-inducible; expressed in L. lactis deltaarcD1D2 cells
T1 sequence (A2RNI5 1-526): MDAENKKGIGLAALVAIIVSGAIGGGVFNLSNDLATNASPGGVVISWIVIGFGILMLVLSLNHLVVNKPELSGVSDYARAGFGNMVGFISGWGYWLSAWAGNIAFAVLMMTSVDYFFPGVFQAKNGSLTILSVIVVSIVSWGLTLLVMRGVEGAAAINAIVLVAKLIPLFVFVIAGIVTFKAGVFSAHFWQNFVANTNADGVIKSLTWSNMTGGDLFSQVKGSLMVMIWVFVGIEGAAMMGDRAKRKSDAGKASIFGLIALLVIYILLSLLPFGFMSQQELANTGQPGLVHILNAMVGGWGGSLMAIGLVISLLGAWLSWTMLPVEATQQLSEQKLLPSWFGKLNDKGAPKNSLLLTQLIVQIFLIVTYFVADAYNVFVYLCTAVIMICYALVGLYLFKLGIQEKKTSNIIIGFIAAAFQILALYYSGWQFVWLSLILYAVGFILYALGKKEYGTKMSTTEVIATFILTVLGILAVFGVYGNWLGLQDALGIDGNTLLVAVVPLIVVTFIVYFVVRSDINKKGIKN
Test: inhibition of […]L-ornithine uptake in resting cells
Type: cell-based
Details: read-out: ArcD1 / KI ^b (μm)

## NC(=O)NCCC[C@H](N)C(=O)O [L‐Citr, L‐citrulline]
  Ki: 529 ± 135 µM
